Source: US9642819B2, “Low dosage serotonin 5-HT2A receptor agonist to suppress inflammation” (BOARD OF SUPERVISORS OF LOUISIANA STATE UNIVERSITY AND …, priority 2008, dated 2017)
Read-outs that look alike come from different tables or passages of the source.

Tests used:
[1] = tested on: VCAM-1 gene expression; assay: TNF-α induced VCAM-1 gene expression in primary rat aortic smooth muscle cells; type: cell-based; conditions: RASM passage 4, media with FBS, 24 h pretreatment, TNF-α 10 ng/ml, read-out: IC50 for proinflammatory gene expression inhibition for VCAM-1
Procedure: RASM cells and treatment. Rat aortic smooth muscle (RASM) cells were isolated from adult 180 g male Sprague-Dawley rats and provided by the Cell and Molecular Core Facility in the Department of Pharmacology at LSUHSC-NO. Isolated RASM cells were grown in M-199 media containing 10% fetal bovine serum (Gibco), 100 units/mL penicillin, and 100 µg/mL streptomycin, and incubated at 37° C. in 5% CO2. Cells for all assays were used between passages 3 and 5. Prior to treatments, cells were grown in M-199 media with 10% fetal bovine serum (FBS) until 30-50% confluent. […]
RNA isolation and Quantitative Realtime-PCR. […]
The sequences of primers used are: 5-HT2AR (5-hydroxytryptamine 2A receptor): forward primer 5′-[…]-3′ (SEQ ID NO: 1), reverse primer, 5′[…]-3′ (SEQ ID NO: 2); ICAM-1 (intracellular adhesion molecule 1): forward primer, 5′-[…]-3′ (SEQ ID NO: 3, reverse primer, 5′-[…]-3′ (SEQ ID NO: 4); VCAM-1 (vascular adhesion molecule 1): forward primer, 5′-[…]-3′ (SEQ ID NO: 5), reverse primer, 5′-[…]-3′ (SEQ ID NO: 6); IL-6 (interleukin-6): forward primer, 5′-[…] […]-3′ (SEQ ID NO: 7), reverse primer, 5′-[…]-3′ (SEQ ID NO: 8); and cyclophillin B (control amplicon): forward primer, 5′-[…]-3′ (SEQ ID NO: 9), reverse primer, 5′-[…]-3′ (SEQ ID NO: 10). […] Quantitative determination of gene expression levels using a 2-step cycling protocol was performed on a MyIQ-5 Cycler (Bio-Rad, Hercules Calif.). […]

[2] = tested on: ICAM-1 gene expression; assay: TNF-α induced ICAM-1 gene expression in primary rat aortic smooth muscle cells; type: cell-based; conditions: for IC50: Rattus norvegicus
Procedure: RASM cells and treatment. Rat aortic smooth muscle (RASM) cells were isolated from adult 180 g male Sprague-Dawley rats and provided by the Cell and Molecular Core Facility in the Department of Pharmacology at LSUHSC-NO. Isolated RASM cells were grown in M-199 media containing 10% fetal bovine serum (Gibco), 100 units/mL penicillin, and 100 µg/mL streptomycin, and incubated at 37° C. in 5% CO2. Cells for all assays were used between passages 3 and 5. Prior to treatments, cells were grown in M-199 media with 10% fetal bovine serum (FBS) until 30-50% confluent. For most assays, cells were treated with (R)-DOI, or other drugs as indicated, at specific concentrations for 24 hours, followed by TNF-α (10 ng/ml) and (R)-DOI at the same pretreatment concentrations in fresh M-199 media. After another 24 hours, the cells were scraped, pelleted, and processed for RNA.
RNA isolation and Quantitative Realtime-PCR. RNA was extracted from cells using Illustra RNAspin Mini kits from GE Healthcare Life Sciences (Piscataway, N.J.) following protocols supplied by the manufacturer. First strand cDNA was generated using the ImProm-II cDNA synthesis kit (Promega) following the manufacturers protocols. Q-RT-PCR was performed using the ProbeLibrary system from Roche (Indianapolis, Ind.) in combination with the HotStart-IT probe qpcr master mix from USB Biological (Cleveland, Ohio) following manufactures protocols.
Primers were synthesized by IDT (Coralville, Iowa). ProbeLibrary probes from Roche were: U3, U74, U13, U106, U79 for 5-HT2AR, ICAM-1, VCAM-1, IL-6, and cyclophillin B, respectively. Quantitative determination of gene expression levels using a 2-step cycling protocol was performed on a MyIQ-5 Cycler (Bio-Rad, Hercules Calif.). Relative gene expression levels were calculated using the 2^[−ΔΔC(T)] method. Levels of all targets from the test samples were normalized to rat cyclophillin B expression.
To examine the effects of 5-HT2A receptor activation on TNF-α mediated proinflammatory gene expression, RASM cells were pretreated with (R)-DOI, a selective 5-HT2 receptor agonist, as described above. Dose-response curves were determined for the effects on ICAM-1, VCAM-1, and IL-6 gene expression for twelve different concentrations of (R)-DOI ranging from 0.1 pM to 100 nM, with each experiment repeated in triplicate. In FIGS. 1A-1C, the Y-axis represents a percent of TNF-α for the dose of (R)-DOI indicated on the X-axis.

Compound: COc1cc(C[C@@H](C)N)c(OC)cc1I [(R)-DOI, (R)-1-(2,5-dimethoxy-4-iodophenyl)-2-aminopropane]
- IC50 [1]: 0.012 nM
- block of TNF-α induced ICAM1 gene expression at 1 nM ([2]; 1 nM pretreatment, VCAM1 and IL6 identical): blocked gene expression
- block of TNF-α effect on ICAM-1 expression with 24 hour and one hour pretreatments and simultaneous treatment ([2]; 1 nM, TNF-α 10 ng/ml): completely blocked
- IC50 ([2]; RASM passage 4, media with FBS, 24 h pretreatment, TNF-α 10 ng/ml, read-out: IC50 for proinflammatory gene expression inhibition for ICAM-1): 0.0195 nM
- IC50 ([2]; RASM passage 4, serum starved for 8 hours, read-out: IC50 for ICAM-1 gene expression inhibition in serum-free media): 0.36 nM
